Measured values published in ChEMBL document CHEMBL3044878, “The interference between metformin treatment and TSH level in euthyroid type 2 diabetic patients” (Med Chem Res, 2013).
Activity calls are given as the source filed them. The calls are words filed in the database; no cut-off is given here.

How the values were obtained:
Assay type in all cases: functional, organism-based
Homo sapiens [1] = organism: Homo sapiens; assay: Effect on FT4 level in diabetic obese pateint by ELISA relative to untreated obese insulin-resistant control
Homo sapiens [2] = organism: Homo sapiens; assay: Effect on FT4 level in diabetic non-obese pateint by ELISA relative to untreated obese insulin-resistant control
Homo sapiens [3] = organism: Homo sapiens; assay: Effect on FT4 level in diabetic obese pateint by ELISA relative to untreated healthy control
Homo sapiens [4] = organism: Homo sapiens; assay: Effect on FT4 level in diabetic non-obese pateint by ELISA relative to untreated healthy control
Homo sapiens [5] = organism: Homo sapiens; assay: Effect on TSH level in diabetic obese pateint by ELISA relative to untreated healthy control
Homo sapiens [6] = organism: Homo sapiens; assay: Decrease in TSH level in diabetic non-obese pateint by ELISA relative to untreated obese insulin-resistant control
Homo sapiens [7] = organism: Homo sapiens; assay: Effect on TSH level in diabetic non-obese pateint by ELISA relative to untreated healthy control

## CN(C)C(=N)NC(=N)N
Homo sapiens [1]
  Activity: inactive
Homo sapiens [2]
  Activity: inactive
Homo sapiens [3]
  Activity: inactive
Homo sapiens [4]
  Activity: inactive
Homo sapiens [5]
  Activity: inactive
Homo sapiens [6]
  Activity: Active
Homo sapiens [7]
  Activity: inactive
